Laboratory results as given in patent US20200247897A1, “THERAPEUTIC ANTIBODIES BASED ON MUTATED IGG HEXAMERS” (GENMAB B.V., priority 2017, published 2020).
Entries after “also recorded” stand apart in the source; their conditions may differ. Read-outs that look alike come from different tables or passages of the source.

Tests used:
SW480 = experiment: Drug combination screen (ATPlite, Synergy Score), SW480; type: cell-based, human
SNU-C2B = experiment: Drug combination screen (ATPlite, Synergy Score), SNU-C2B
LS-411N = experiment: Drug combination screen (ATPlite, Synergy Score), LS-411N; type: cell-based, human
HCT 116 = experiment: Drug combination screen (ATPlite, Synergy Score), HCT 116
DLD-1 = experiment: Drug combination screen (ATPlite, Synergy Score), DLD-1
[1] = system: SW480 human colon cancer cells; experiment: Subcutaneous SW480 colon cancer xenograft model; type: in vivo, NOD/SCID mice; conditions: 0.5, 2, 10 mg/kg i.v., twice Q7D
Method: 1×10^7 cells were injected in a volume of 200 μL PBS with Matrigel (1:1) into the flank of 6-8 weeks old female NOD/SCID mice (Beijing HFK Bioscience).

[2] = system: HCT-15 colon cancer cells; experiment: 3-days CellTiter-Glo viability assay, HCT-15; conditions: 4 μg/mL
[3] = system: COLO 205 human colon cancer cells; experiment: Subcutaneous COLO 205 colon cancer xenograft model; type: in vivo, SCID mice
Method: The in vivo anti-tumor efficacy of different anti-DR5 antibodies and the combination of DR5-01+DR5-05 antibodies with hexamerization enhancing mutation was evaluated in a subcutaneous model with COLO 205 human colon cancer cells. At day 0, cells were harvested by pooling the culture supernatant containing non-adherent cells and trypsinized adherent cells. 3×10^6 cells were injected in a volume of 200 μL PBS into the flank of 6-11 weeks old female SCID mice (C.B-17/IcrHan®Hsd-Prkdc^scid; Harlan). All experiments and animal handlings were approved by the local authorities, and were conducted according to all applicable international, national and local laws and guidelines. Tumor development was monitored at least twice per week by caliper (PLEXX) measurement as 0.52×(length)×(width)^2. […] Mice were treated by intraperitoneal (i.p.) injection of 100 μg antibody in 200 μL PBS on day 6 and 13 (5 mg/kg per dose). To check for correct antibody administration, blood samples were obtained for IgG serum determination three days after the first dose. […] Tumors were measured until 16 weeks after tumor inoculation.
Mice were treated by intravenous (i.v.) injection of 40 μg (2 mg/kg), 10 μg (0.5 mg/kg) or 2 μg (0.1 mg/kg) antibody in 100 μL PBS on day 10. Mice in the control group were treated with 40 μg (2 mg/kg) IgG1-b12. Tumors were measured until 17 weeks after tumor inoculation.
At day 9, the average tumor volume was measured and the mice were sorted into groups with equal tumor size variance. Mice were treated by intravenous (i.v.) injection of 10 μg (0.5 mg/kg) antibody in 200 μL PBS on day 9. Mice in the control group were treated with 10 μg (0.5 mg/kg) IgG1-b12.

[4] = system: COLO 205 human colon cancer cells; experiment: 3-days CellTiter-Glo viability assay, COLO 205; type: cell-based
Method: COLO 205 cells were harvested by pooling the culture supernatant containing non-adherent cells and trypsinized adherent cells. HCT 116 cells were harvested by trypsinization. […] In samples that were treated with a combination of two antibodies, the total antibody concentration in the assay was the same as in the samples that were treated with single antibodies. […] From the kit, 20 μL luciferin solution reagent was added per well and mixed by shaking the plate for 2 minutes at 500 rpm. Next, plates were incubated for 1.5 hours at 37° C. 100 μL supernatant was transferred to a white OptiPlate-96 (Perkin Elmer, Cat nr 6005299) and luminescence was measured on an EnVision Multilabel Reader (PerkinElmer). Data were analyzed and plotted using non-linear regression (sigmoidal dose-response with variable slope) using GraphPad Prism software.
The antibodies with and without the E430G mutation were tested as single agent and as combinations of the two non-crossblocking antibodies. COLO 205 cells were harvested as described in Example 8.

[5] = system: SK-MES-1 human lung cancer cells; experiment: Subcutaneous SK-MES-1 lung cancer xenograft model; conditions: Example 33: 0.5, 2, 10 mg/kg i.v., twice Q7D
Method: The cells were maintained in vitro as a monolayer culture in MEM medium supplemented with 10% fetal bovine serum and 0.01 mM NEAA at 37° C. in an atmosphere of 5% CO2 in air. At day 0, adherent cells in an exponential growth phase were harvested by trypsin-EDTA treatment. 5×10^6 cells were injected in a volume of 100 μL PBS into the flank of 6-8 weeks old female BALB/c mice (Shanghai Laboratory Animal Center). Mouse handling and tumor volume measurements were performed as described in Example 30. Twenty-one days after tumor inoculation, the mean tumor size reached 161 mm^3 and mice were assigned into groups using randomized block design and treatments were started. Mice were treated twice according to a Q7D regimen by i.v. injection of 200 μg (10 mg/kg), 40 μg (2 mg/kg) or 10 μg (0.5 mg/kg) antibody in 10 μL PBS per g body weight. Mice in the control group were treated in parallel with 200 μg (10 mg/kg) IgG1-b12. After tumor inoculation, welfare of the animals was checked daily and tumor volumes were measured twice weekly.
Cell culturing, tumor cell inoculation, mice handling, tumor outgrowth measurements and endpoint determination were performed as described in Example 33.

[6] = system: PANC-1 pancreatic cancer cells; experiment: 3-days CellTiter-Glo viability assay, PANC-1; type: cell-based, human; conditions: 10 μg/mL
[7] = system: HCT-15 human colon cancer cells; experiment: Subcutaneous HCT-15 colon cancer xenograft model; type: in vivo, BALB/c nude mice; conditions: Example 30: 0.5, 2, 10 mg/kg i.v., twice Q7D
Method: (§1) The care and use of animals during the study were conducted in accordance with the regulations of the Association for Assessment and Accreditation of Laboratory Animal Care (AAALAC). Tumor volumes were measured twice weekly in two dimensions using a caliper, and the volume was expressed in mm^3 using the formula: V=0.5 a×b2 where a and b are the long and short diameters of the tumor, respectively.
as §1, with “a×b^2” for “a×b2”

[8] = system: BxPC-3 pancreatic cancer cells; experiment: 3-days CellTiter-Glo viability assay, BxPC-3
[9] = compound in combination with IgG1-hDR5-01-G56T-E430G + IgG1-hDR5-05-E430G, SW480, 72 hour ATPlite, 6x6 matrix
[10] = compound in combination with IgG1-hDR5-01-G56T-E430G + IgG1-hDR5-05-E430G, SNU-C2B, 72 hour ATPlite, 6x6 matrix
[11] = compound in combination with IgG1-hDR5-01-G56T-E430G + IgG1-hDR5-05-E430G, LS-411N, 72 hour ATPlite, 6x6 matrix
[12] = compound in combination with IgG1-hDR5-01-G56T-E430G + IgG1-hDR5-05-E430G, HCT 116, 120 hour ATPlite, 6x6 matrix
[13] = compound in combination with IgG1-hDR5-01-G56T-E430G + IgG1-hDR5-05-E430G, DLD-1, 120 hour ATPlite, 6x6 matrix
[14] = 10 μg/mL, F(ab')2 goat-anti-human IgG, listed as IgG1-DR5-CONA

Row | Compound | Synergy Score SW480 (SW480; [9]) | Synergy Score SNU-C2B (SNU-C2B; [10]) | Synergy Score LS-411N (LS-411N; [11]) | Synergy Score HCT-116 (HCT 116; [12]) | Synergy Score DLD-1 (DLD-1; [13]) | other results
1 | Oc1c2ccccc2c2c3c(cccc13)N=N2 [SP 600125] | 0.9 | 2 | 0.5 | 0.6 | 3.3 | 
2 | CC(C)=CCC/C(C)=C/CC/C(C)=C/CSc1ccccc1C(=O)O [Salirasib] | 0.4 | 0.4 | 0 | 0.1 | 0.1 | 
3 | CNC(=O)c1cc(Oc2ccc(NC(=O)Nc3ccc(Cl)c(C(F)(F)F)c3)cc2)ccn1 [Sorafenib] | 3.9 | 2.9 | 6 | 0.5 | 2.6 | 
4 | Cc1ccccc1CN1C(=O)C2=C(CCN(Cc3ccccc3)C2)N2CCN=C12 [TIC10] |  |  |  |  |  | Synergy Score SW480 (SW480): 3.4; Synergy Score SNU-C2B (SNU-C2B): 13.1; Synergy Score LS-411N (LS-411N): 23.3; Synergy Score HCT-116 (HCT 116): 2.2; Synergy Score DLD-1 (DLD-1): 15.5
5 | CO[C@H]1C[C@@H]2CC[C@@H](C)[C@@](O)(O2)C(=O)C(=O)N2CCCC[C@H]2C(=O)O[C@H]([C@H](C)C[C@@H]2CC[C@@H](OC(=O)C(C)(CO)CO)[C@H](OC)C2)CC(=O)[C@H](C)/C=C(\C)[C@@H](O)[C@@H](OC)C(=O)[C@H](C)C[C@H](C)/C=C/C=C/C=C/1C [Temsirolimus] | 1.6 | 4.5 | 0.6 | 0.6 | 0.7 | 
6 | CC(=O)Nc1cccc(-n2c(=O)n(C3CC3)c(=O)c3c(Nc4ccc(I)cc4F)n(C)c(=O)c(C)c32)c1 [Trametinib] | 7.2 | 0.6 | 0.9 | 4 | 4.1 | 
7 | COc1cc2nccc(Oc3ccc(NC(=O)C4(C(=O)Nc5ccc(F)cc5)CC4)cc3)c2cc1OC [XL184] | 6 | 1.5 | 5.8 | 1 | 4.1 | 
8 | COCCn1c2c([n+](Cc3cnccn3)c1C)C(=O)c1ccccc1C2=O [YM155] | 12.1 | 11.5 | 9 | 0.5 | 5.2 | 
9 | CC(=O)O[C@@]12CO[C@@H]1C[C@H](O)[C@@]1(C)C(=O)[C@H](O)C3=C(C)[C@@H](OC(=O)[C@H](O)[C@@H](NC(=O)OC(C)(C)C)c4ccccc4)C[C@@](O)([C@@H](OC(=O)c4ccccc4)[C@H]21)C3(C)C [docetaxel] | 19.5 | 15.8 | 36.2 | 7.9 | 17.6 | 
10 | CCc1c2c(nc3ccc(OC(=O)N4CCC(N5CCCCC5)CC4)cc13)-c1cc3c(c(=O)n1C2)COC(=O)[C@]3(O)CC [irinotecan, reference compound] | 24.7 | 13.4 | 6.8 | 4.4 | 15 | 
11 | IC-87114 | 0 | 0.1 | 0.2 | 0.1 | 0 | 
12 | IgG1-CONA: reference anti-DR5 antibody based on U.S. Pat. No. 7,521,048 B2 and WO2010/138725 |  |  |  |  |  | tumor growth (mean tumor volume) versus IgG1-b12 [1]: only better than IgG1-b12 at the highest doses (10 mg/kg and 2 mg/kg p<0.01), but not at 0.5 mg/kg; effect of secondary crosslinker on killing of HCT15 cells [2]: enhanced by the presence of a secondary crosslinker; tumor growth (mean tumor volume) ([3]; Example 26: 5 mg/kg i.p. on day 6 and 13): strongly inhibited tumor growth compared to IgG1-b12, but did not result in complete tumor abrogation; tumor growth progression versus IgG1-b12 (Kaplan-Meier, cutoff >500 mm^3) ([3]; Example 27: 0.5 mg/kg and 2 mg/kg): significantly inhibited tumor growth progression compared to the negative control antibody IgG1-b12; tumor regression (mean tumor volume) ([3]; Example 27: single dose 0.5 mg/kg i.v. day 10): regression was incomplete with recurring tumor outgrowth in all mice; tumor regression (mean tumor volume) ([3]; Example 27: single dose 2 mg/kg i.v. day 10): almost all (7/8) mice; killing of COLO 205 cells in presence of Fc crosslinker [4, 14]: Fc crosslinking induced killing; also recorded: only induced killing in the presence of Fc crosslinker; killing of COLO 205 cells in absence of Fc crosslinker ([4]; 10 μg/mL, adherent cells): did not induce target cell killing in the absence of an Fc crosslinker; killing of adherent (attached) COLO 205 cells (% viable cells) ([4]; cells adhered overnight before adding antibody, dilution series): not able to kill attached COLO 205 colon cancer cells; tumor growth (mean tumor volume) versus IgG1-b12 [5]: only had a significant effect compared to IgG1-b12 at 10 mg/kg (p<0.01) and 2 mg/kg (p<0.05) but not at 0.5 mg/kg; killing of PANC-1 cells in absence of Fc crosslinker [6]: did not induce target cell killing in the absence of an Fc crosslinker; tumor growth (mean tumor volume) [7]: did not; effect of secondary crosslinker on killing of BxPC-3 cells ([8]; 4 μg/mL): enhanced by the presence of a secondary crosslinker; killing of BxPC-3 cells in absence of Fc crosslinker ([8]; 10 μg/mL): did not induce target cell killing in the absence of an Fc crosslinker; killing of BxPC-3 cells in presence of Fc crosslinker [8, 14]: Fc crosslinking induced killing; also recorded: only induced killing in the presence of Fc crosslinker
